The text below walks through data of patent publication CN102488699A, “芍药苷在制备防治肺纤维化药物中的应用” (China Pharmaceutical University, priority 2011, dated 2012).

The test system of assay [1] is pulmonary fibrosis mice [肺纤维化小鼠]. As to the kind of experiment: Effect on survival rate of mice with bleomycin-induced pulmonary fibrosis. The assay is classed as in vivo, mouse. To be noted: intragastric, once daily from day 1, model group 50.0%; for survival rate: day 21 after bleomycin (5 mg/kg intratracheal).
The subject of assay [2] is TGF-β1 protein [TGF-β1蛋白]. Put plainly: Effect on TGF-β1 protein expression in lung tissue of pulmonary fibrosis mice, Western blot (Fig. 5). It is filed as in vivo, mouse. Conditions: intragastric, once daily, day 21. A general note: A western blot detects proteins with antibodies after separation by electrophoresis.
The subject of assay [3] is bleomycin model mice [博来霉素模型小鼠]. Put plainly: Effect on degree of alveolitis and pulmonary fibrosis in bleomycin model mice (Table 1). Conditions: intragastric, once daily, day 21, n=3. The assay is classed as in vivo, mouse.
The subject of assay [4] is smooth muscle actin (α-SMA) [平滑肌肌动蛋白(α-SMA)]. As to the kind of experiment: Effect on α-SMA expression in lung tissue of pulmonary fibrosis mice, Western blot (Fig. 4). To be noted: intragastric, once daily, day 21. It is filed as in vivo, mouse.
The subject of assay [5] is hydroxyproline in lung tissue of pulmonary fibrosis mice [肺纤维化小鼠肺组织中羟脯氨酸]. As to the kind of experiment: Effect on hydroxyproline content in lung tissue of pulmonary fibrosis mice (Fig. 3). It is filed as in vivo, mouse.
Assay [6] has as its system lung tissue of pulmonary fibrosis mice [肺纤维化小鼠肺组织]. Put plainly: Effect on collagen deposition in lung tissue of pulmonary fibrosis mice, Masson staining (Fig. 2). The assay is classed as in vivo, mouse. Conditions: intragastric, once daily, day 21, vs model group.
For assay [7] the test system is unchanged. As to the kind of experiment: Effect on lung tissue lesions of pulmonary fibrosis mice, HE staining (Fig. 1). It is filed as in vivo, mouse. Conditions: intragastric, once daily, day 21, vs model group.
Assay [8] concerns lipopolysaccharide-induced acute lung injury in mice [脂多糖引起的小鼠急性肺损伤]. Conditions: intraperitoneal injection, Inflamm Res 2011,60(10):981-990; cited from earlier work.

What is called inhibition is the percentage by which the read-out fell short of the control. As to `C[C@@]12C[C@@]3(O)O[C@@H](O1)[C@]1(COC(=O)c4ccccc4)[C@H]3C[C@@]12O[C@@H]1O[C@H](CO)[C@@H](O)[C@H](O)[C@H]1O` [芍药苷, Paeoniflorin], the survival rate in assay [1] (50 mg/kg) is 87.5%. For the same compound, the survival rate in assay [1] (100 mg/kg) is listed as 75.0%. Besides, in assay [2] (100 mg/kg), the “TGF-β1 expression in lung tissue” value was “显著降低”. Moreover, in assay [3] (100 mg/kg), the alveolar inflammation entry was “抑制肺泡炎症” and the “degree of pulmonary fibrosis” value was “显著减低肺纤维化程度”. The “α-SMA content in lung tissue” value in assay [4] (100 mg/kg) was “显著降低”. In addition, in assay [5] (50, 100 mg/kg, intragastric, once daily, day 21), the “inhibition of collagen synthesis (in words)” value is “剂量依赖性抑制胶原的合成”. Further, in assay [5] (Mus musculus, po, 504 h, 50 mg/kg, intragastric, once daily, day 21, read-out: inhibition rate of hydroxyproline content in lung tissue), the inhibition at 50 mg/kg came to 20.6%. The inhibition at 100 mg/kg in assay [5] (Mus musculus, po, 504 h, 100 mg/kg, intragastric, once daily, day 21, read-out: inhibition rate of hydroxyproline content in lung tissue) is 31.4%. In addition, the “collagen deposition and pulmonary fibrosis, Masson staining” value in assay [6] (100 mg/kg) is listed as “肺组织结构较完整清晰,肺泡间隔轻度增厚,胶原沉积减少,肺纤维化程度明显减轻”. In addition, in assay [7] (100 mg/kg), the “degree of alveolitis, HE staining” value is listed as “肺泡炎程度明显减轻” and the “lung tissue lesions, HE staining” value is on record as “肺组织结构较完整清晰,少量炎性细胞浸润及成纤维细胞增生,病变程度较模型组轻”. Further, the “protective effect on acute lung injury” value in assay [8] is on record as “具有明显的保护作用”.

Take `CC(=O)OCC(=O)[C@@]1(O)CC[C@H]2[C@@H]3CCC4=CC(=O)C=C[C@]4(C)[C@H]3C(=O)C[C@@]21C` [泼尼松, 醋酸泼尼松, reference compound]: in assay [1] (6 mg/kg, day 21 after bleomycin), the “survival rate (in words)” value is recorded as “与模型组相近”. Also, the “TGF-β1 expression in lung tissue” value in assay [2] (6 mg/kg) was “显著降低”. Also, in assay [3] (6 mg/kg), the alveolar inflammation result was “抑制肺泡炎症” and the “degree of pulmonary fibrosis” value is recorded as “显著减低肺纤维化程度”. Also, in assay [4] (6 mg/kg), the “α-SMA content in lung tissue” value is reported as “显著降低”. Moreover, in assay [5] (Mus musculus, po, 504 h, read-out: inhibition rate of hydroxyproline content in lung tissue), the inhibition at 6 mg/kg came to 31.2%. Also, the “collagen deposition and pulmonary fibrosis, Masson staining” value in assay [6] (6 mg/kg) is reported as “肺组织结构较完整清晰,肺泡间隔轻度增厚,胶原沉积减少,肺纤维化程度明显减轻”. For the same compound, in assay [7] (6 mg/kg), the “degree of alveolitis, HE staining” value is reported as “肺泡炎程度明显减轻” and the “lung tissue lesions, HE staining” value was “肺组织结构较完整清晰,少量炎性细胞浸润及成纤维细胞增生,病变程度较模型组轻”.
